For four compounds, Kd results are on record in ChEMBL document CHEMBL2163214, “Design, synthesis, calorimetry, and crystallographic analysis of 2-alkylaminoethyl-1,1-bisphosphonates as inhibitors of Trypanosoma cruzi farnesyl diphosphate synthase” (J Med Chem, 2012).

Molecules are shown by their SMILES.

The nature of the assay: Binding affinity to Trypanosoma cruzi farnesyl diphosphate synthase at 250 uM at 28 degC by isothermal titration calorimetry. (In ITC the heat of successive injections is recorded.)
In general, Kd refers to a measure of binding affinity in units of concentration. A low value points to a tighter complex. Take `CCCCCCCNCC(P(=O)(O)O)P(=O)(O)O`: binding was put at a Kd of 58.8 nM.
As for `CCCCCCNCC(P(=O)(O)O)P(=O)(O)O`, the figure is 400 nM; as for `CCCNCC(P(=O)(O)O)P(=O)(O)O`, 25 nM; as for `CCCCCNCC(P(=O)(O)O)P(=O)(O)O`, 1030 nM.
